According to PubChem BioAssay AID1996:
In brackets after ≈: the same amount, converted by molar mass.

details: buffer; pH 7.4; 200.0 µM

| solubility kinetic | SMILES |
| --- | --- |
| < 0.6 µg/mL | Cc1ccc2oc(=O)n(CCOc3ccccc3C)c2c1 |
| > 45.9 µg/mL | O=C(O)CNS(=O)(=O)c1ccc2c3c(cccc13)C(=O)N2 |
| 9.2 µg/mL (≈ 35.1 µM) | CCCCc1ccc(NC(=S)N2CCCC2)cc1 |
| > 53.1 µg/mL | COc1cccc(OC)c1CN(C)C(=O)c1cnccc1C(F)(F)F |
| > 34.4 µg/mL | C#CCN1C(=O)C2(OCCO2)c2ccccc21 |
| > 54.8 µg/mL | CCC(=O)NCCc1nc2cc(NC(=O)Nc3ccccc3)ccc2n1C |
| 31.5 µg/mL (≈ 139 µM) | CN(C)Cc1cc2ccccc2c2c1COC2 |
| > 46.1 µg/mL | COC(=O)c1cc(OC)c(OC)cc1N1C(=O)CCCC1=O |
| 30 µg/mL (≈ 127 µM) | CC(=O)N(CCCN(C)C)Cc1ccccn1 |
| 42.8 µg/mL (≈ 137 µM) | O=C(CCNC(=O)c1ccccc1Cl)NC1=NCCS1 |
| 48.3 µg/mL (≈ 142 µM) | CCn1c(=O)c2c(nc3n2CCCN3c2cccc(C)c2)n(C)c1=O |
| 36.1 µg/mL (≈ 111 µM) | C/C(=C/c1ccccc1)C(=O)N1CCN(c2ccc(F)cc2)CC1 |
| 1.3 µg/mL (≈ 3.91 µM) | Oc1ccc(C(=S)N2CCN(c3cccc(Cl)c3)CC2)cc1 |
| > 44.2 µg/mL | COc1cc(C(=S)N2CCCC2)ccc1OCC(N)=O |
| 34.7 µg/mL (≈ 120 µM) | COc1cc2c(cc1OC)CN(C1CCC(C)CC1)CC2 (stereo not given) |
| > 49.3 µg/mL | COc1ccc(OC)c(S(=O)(=O)NC2CCCCNC2=O)c1 (stereo not given) |
| 13.5 µg/mL (≈ 45.7 µM) | COC(=O)c1cccc(NC(=O)c2cc3ccccc3o2)c1 |
| 24.2 µg/mL (≈ 56.6 µM) | CCN(c1ccccc1)S(=O)(=O)c1ccc(OC)c(NC(=O)c2ccc(=O)[nH]c2)c1 |
| > 48.9 µg/mL | Cc1c(Cl)cccc1NC(=S)NC1CCN(C(C)C)CC1 |
| 1.2 µg/mL (≈ 3.64 µM) | Cc1noc(C)c1C(=O)N(CC(C)C)c1nc2ccccc2s1 |

| solubility kinetic | SMILES |
| --- | --- |
| 39 µg/mL (≈ 149 µM) | O=C(Cc1cccc2ccccc12)Nc1cccnc1 |
| > 48.7 µg/mL | N#Cc1ccc(OCC(=O)NCC2COc3ccccc3O2)cc1 (stereo not given) |
| 2 µg/mL (≈ 5.72 µM) | CCOc1ccc(C(NC(=O)CC)c2c(O)ccc3ccccc23)cc1 (stereo not given) |
| > 44.5 µg/mL | Cc1cccc(NS(=O)(=O)c2csc(C(N)=O)c2)c1 |
| 4.3 µg/mL (≈ 19.8 µM) | c1ccc2c(c1)Cc1cc3ccccc3nc1-2 |
| 22.8 µg/mL (≈ 77.2 µM) | COc1ccc(O)c(/C=C(\C#N)C(=O)Nc2ccccn2)c1 |
| > 53 µg/mL | CCOc1ccc(C2C(C#N)=C(N)Oc3cc(C)[nH]c(=O)c32)cc1OC (stereo not given) |
| > 44.6 µg/mL | OC1CCN(Cc2ccc(OCc3ccccc3)cc2)CC1 |
| 7.7 µg/mL (≈ 27.4 µM) | Clc1ccc(C2Nc3cccc4cccc(c34)N2)cc1 |
| > 40.7 µg/mL | Cc1csc(SCC(=O)Nc2nccs2)n1 |
| 7.8 µg/mL (≈ 25.7 µM) | CC(C)c1ccc(NC(=O)COC(=O)CC2CCCC2)cc1 |
| 2.6 µg/mL (≈ 7.26 µM) | COC(=O)c1cc(C(=O)NCc2ccc3c(c2)OCO3)cc([N+](=O)[O-])c1 |
| 43.7 µg/mL (≈ 142 µM) | CCOC(=O)CN(C(=O)c1ccccc1[N+](=O)[O-])C(C)(C)C |
| 19.1 µg/mL (≈ 54 µM) | N/C(CS(=O)(=O)c1ccccn1)=N\OC(=O)c1ccc(Cl)cc1 |
| 15.6 µg/mL (≈ 52.8 µM) | CCn1c(/N=C/c2ccc(OC)cc2O)nc2ccccc21 |
| > 53 µg/mL | O=C(Cn1c(CO)nc2ccccc21)Nc1ccc2c(c1)OCCCO2 |
| 21.2 µg/mL (≈ 58.8 µM) | COc1ccc(OCCN(C)CC(=O)Nc2ccccc2SC)cc1 |
| 41.7 µg/mL (≈ 122 µM) | O=C(NC1CC1)C1CCN(S(=O)(=O)c2ccc(Cl)cc2)CC1 |
| > 48.1 µg/mL | CCC(CC)NC(=O)C1CC(=O)N(CCc2ccc(F)cc2)C1 (stereo not given) |
| 43.9 µg/mL (≈ 150 µM) | CC(NC=O)c1nc2ccccc2n1CCc1ccccc1 (stereo not given) |

| solubility kinetic | SMILES |
| --- | --- |
| > 71.6 µg/mL | NS(=O)(=O)c1cccc(NC(=O)COC(=O)c2ccccc2SCC(=O)N2CCCC2)c1 |
| 4 µg/mL (≈ 14.8 µM) | CCOC(=O)Nc1ccc(C(=O)c2ccncc2)cc1 |
| > 49.4 µg/mL | CC(C)C(NC(=O)c1ccc(Cl)cc1Cl)C(=O)N1CCC1 (stereo not given) |
| > 46.1 µg/mL | Cc1cc(NCCCN(C)C)n2c(nc3ccccc32)c1C#N |
| 42.3 µg/mL (≈ 133 µM) | COCCNC(=O)C(=O)Nc1cc2c3c(c1)CC(=O)N3CCC2 |
| < 0.7 µg/mL | O=C1/C(=C/c2cccc(O)c2)SC(=S)N1CC1CCCO1 (stereo not given) |
| 40.2 µg/mL (≈ 147 µM) | COC(=O)c1ccc(S(=O)(=O)NC(C)(C)C)n1C |
| 16.5 µg/mL (≈ 59.9 µM) | CCOc1ccccc1NC(=O)c1csc(C)c1C |
| > 34.7 µg/mL | CCCC(=O)Nc1ccc2oc(=O)ccc2c1 |
| < 0.2 µg/mL | c1ccc(-n2cccc2)c(N2CCCCC2)c1 |
| > 50.8 µg/mL | COCCCNC(=O)c1ccc(CN2CCc3ccccc3C2)cc1 |
| > 53.6 µg/mL | COc1cccc(CC(=O)OCC(=O)NCc2ccc3c(c2)OCO3)c1 |
| > 56.9 µg/mL | CN(C)/C=C1\C(=O)N(c2ccc(F)cc2F)C(c2cccnc2)S1(=O)=O (stereo not given) |
| > 47 µg/mL | O=C(O)c1ccc(CNC(=O)C23CC4CC(CC(C4)C2)C3)cc1 |
| > 49.4 µg/mL | Cc1ccc(F)cc1NC(=O)c1ccc(OCC2CCCO2)cc1 (stereo not given) |
| 12.1 µg/mL (≈ 31.7 µM) | Cc1ccc(-c2csc(NC(=O)C3CC(=O)N(Cc4ccco4)C3)n2)cc1 (stereo not given) |
| > 46.1 µg/mL | Cc1ccc(C2CC(=O)NC(SCC(N)=O)=C2C#N)s1 (stereo not given) |
| 54.4 µg/mL (≈ 146 µM) | Cc1ccc(C(=O)N2CCN(Cc3ccc4c(c3)OCO4)CC2)c(Cl)c1 |
| 33.8 µg/mL (≈ 116 µM) | O=c1c2ccccc2ncn1-c1ccc(Cl)cc1Cl |

| SMILES | solubility kinetic |
| --- | --- |
| CN1CCN(c2ccc([N+](=O)[O-])c(Sc3ccccn3)c2)CC1 | > 49.6 µg/mL |
